In patent US20240208961A1, “EIF4E INHIBITORS AND USES THEREOF” (PIC Therapeutics, Inc., priority 2022, published 2024) one finds IC50 data, which are given here for seven compounds.

The target of one test is T1, Human eIF4E (aa 28-217) (Homo sapiens, UniProt P06730).
T1 construct: Human eIF4E (aa 28-217) with a C-terminal His-tag; made in house
Briefly: 4G-eIF4E protein-based assay (TR-FRET, biotin labeled 4G2 peptide). The test is classed as binding. The protocol:
Human eIF4E ([…]) with a C-terminal His-tag was expressed in E. coli in inclusion bodies. The protein was solubilized with 8 M urea and purified under denaturing conditions using nickel-charged HisTrap HP columns (GE Healthcare). The purified protein was then refolded by diluting in 20 mM Hepes pH 7.0, 0.5 M NaCl, 1 mM DTT, […], 0.5 M arginine plus 6 M urea, and then dialyzing overnight into the same buffer without the urea. The protein was further dialyzed into 20 mM Hepes, pH 6.5, 50 mM NaCl, 1 mM EDTA, 1 mM DTT, and concentrated using Hitrap SP sepharose FF columns (GE Healthcare). The concentrated protein was dialyzed into 20 mM Hepes, pH 7.0, 0.5M NaCl, 5 mM DTT and […], and stored at -80° C. until use. Test compounds (3.43 mM stock in DMSO) were diluted 2-fold in series in DMSO (10 concentration points). Compound solutions (1.2 μL/well) were added into black 384-well polypropylene microplates (Matrix, Thermal Scientific). […] The samples were incubated at room temperature (20-23° C.) for 4 hours. Biotin labeled 4G2 peptide ([…])-NH2, 1.75 μM stock in DMSO) was diluted to 0.13 μM in Assay Buffer (without DTT) and 5 μL/well was added. The samples were incubated at room temperature for 20 min. Five microliters per well of 15 nM Eu-streptavidin (Eu-SA, Perkin Elmer) and 96 nM Allophycocyanin (APC)-anti His antibody (Columbia Biosciences) in Assay Buffer (without DTT) were then added and the samples were incubated at room temperature for 20 min. Assay signals were monitored by reading excitation at 340 nm and emission fluorescence at 615 nm and 665 nm on an Envision reader (Perkin Elmer). Normalized TR-FRET (time-resolved fluorescence resonance energy transfer) assay signal (Rn) was calculated by the formula: […] C=(Ac-Ba)/(Dc-Bd) • Where Ac is the fluorescence intensity of 1.5 nM Eu-SA in the assay buffer at 665 nm. IC50 values were calculated using xLFit program (IDBS).
A general note: Time-resolved FRET reads energy transfer from a long-lived donor to a nearby acceptor.

The subject of the next test is ZR-75-1. Briefly: Cell viability assay, adherent cell line, 5 day Alamar Blue (Example 8): ZR-75-1. Particulars: Homo sapiens, 120 h, ZR-75-1, Breast Cancer Cell Viability. The test is classed as cell-based. The method, then: Cell viability assays were performed on certain compounds of the disclosure, according to the following procedure.
Cell line specific media conditions used:
The procedure for adherent cell line compound screening was as follows:
• Cells were seeded in 96-well cell culture treated tissue culture plates: ZR-75-1, NIHOVCAR3, T47D, and LOVO cells 4000 cells/well; and HPAFII 3000 cell/well
Day 3: Compound Dilution and Dosing
• 5-fold serial dilution (8 point) of each compound in DMSO 0-25 mM in compound storage plates was prepared (stored at −80° C. if not to be used immediately). • Cells were rinsed with 1% FBS Media (appropriate to cell line as described above) and replaced with 87.5 μL media prior to dosing. HPAFII was screened in normal 10% FBS Media. • DMSO compound dilution series was diluted in 1% FBS media (appropriate to cell line as described above)—2 μL in 248 μL to give an 8× final concentration. • Cells were dosed 12.5 μL/well in triplicate to give final dose curved on cells 0-25 μM. • Media blank 100 μL/well×8 was set up. • All plates were incubated at 37° C.
Day 8: 5 Day Viability Assay
• Alamar Blue viability reagent was added (10 μL per well) and incubated for 3 hours at 37° C. prior to fluorescence detection (Ex560 nm/Em590 nm) on a Varioskan Lux multimode plate reader.
Results from cell viability assays are summarized in Table 23, wherein A represents IC50≤1 μM; B represents 1 μM<IC50≤8 μM; and C represents IC50>8 μM. Blank cells indicate that the compound was not tested in a particular assay.
Background: The colour change of resazurin is a common sign of viable cells or microbes.

T1 sequence (P06730 28-217): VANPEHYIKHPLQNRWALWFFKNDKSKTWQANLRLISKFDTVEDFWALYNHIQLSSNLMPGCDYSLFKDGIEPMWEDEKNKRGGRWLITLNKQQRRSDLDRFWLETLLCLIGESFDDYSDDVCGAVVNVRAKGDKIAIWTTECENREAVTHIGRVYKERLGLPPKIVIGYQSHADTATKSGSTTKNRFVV

As a reminder, the IC50 is the point on the concentration scale where inhibition reaches its midpoint. Low readings indicate greater potency in that assay, high ones weaker potency in that assay. Turning to `CC(C)Cc1sc(Nc2ncc(-c3cccs3)cc2C(=O)O)nc1C1=CCOCC1` [Compound I-1], the values for the IC50 at Human eIF4E (aa 28-217) and with ZR-75-1 were 0.5 to 1 µM and no more than 1 µM, respectively.

The compound `CC(C)Cc1sc(Nc2ncc(-c3cccs3)cc2C(=O)O)nc1C1=CCCCC1` [Compound I-2] gave an IC50 in the test on ZR-75-1 of no more than 1 µM.

For `CC(C)Cc1sc(Nc2ncc(-c3cccs3)cc2C(=O)O)nc1C1CCCCC1` [Compound I-3], the values for the IC50 against Human eIF4E (aa 28-217) and in the test with ZR-75-1 were 0.5 to 1 µM and no more than 1 µM, respectively.

Take `CC(C)Cc1sc(Nc2ncc(-c3cccs3)cc2C(=O)O)nc1C1=CCCC1` [Compound I-8]: the figures for the IC50 against Human eIF4E (aa 28-217) and in the test on ZR-75-1 were 0.5 to 1 µM and no more than 1 µM, respectively.

Turning to `CC(C)Cc1sc(Nc2ncc(-c3cccs3)cc2C(=O)O)nc1C(C)(C)C` [Compound I-11], the IC50 was 0.5 to 1 µM on Human eIF4E (aa 28-217) and no more than 1 µM in the test with ZR-75-1.

Take `CC(C)Cc1sc(Nc2ncc(-c3cccs3)cc2C(=O)O)nc1C1(C)CCCCC1` [Compound I-27]: the results for the IC50 against Human eIF4E (aa 28-217) and in the test with ZR-75-1 were no more than 0.5 µM and no more than 1 µM, respectively.

Take `CC(C)Cc1sc(Nc2ncc(-c3cccs3)cc2C(=O)O)nc1C1CCC(F)(F)CC1` [Compound I-29]: the results for the IC50 at Human eIF4E (aa 28-217) and in the test on ZR-75-1 were 0.5 to 1 µM and no more than 1 µM, respectively.
